Test results from BindingDB's records for doi:10.1007/pl00005326 (Schering-Plough Research Institute, 1999).

Molecular target: T1, Adenosine receptor A3 (Homo sapiens, UniProt P0DMS8)
T1 sequence (P0DMS8 whole entry): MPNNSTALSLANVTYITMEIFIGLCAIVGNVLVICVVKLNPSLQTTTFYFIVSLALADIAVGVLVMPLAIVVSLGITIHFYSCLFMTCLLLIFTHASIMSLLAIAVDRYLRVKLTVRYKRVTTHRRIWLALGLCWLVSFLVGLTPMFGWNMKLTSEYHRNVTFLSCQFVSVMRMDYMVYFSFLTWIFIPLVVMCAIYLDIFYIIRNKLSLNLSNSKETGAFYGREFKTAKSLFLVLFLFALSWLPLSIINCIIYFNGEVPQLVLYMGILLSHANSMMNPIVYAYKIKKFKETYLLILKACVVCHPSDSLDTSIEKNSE

| Ki [µM] | Compound |
| --- | --- |
| > 10 | Nc1nc(NCCc2ccc(O)cc2)nc2nc(-c3ccco3)nn12 |
| > 10 | Nc1nc2c(cnn2CCc2ccccc2)c2nc(-c3ccco3)nn12 |

| Compound | Ki [µM] |
| --- | --- |
| Nc1nc2ccc(Cl)cc2c2nc(-c3ccco3)nn12 | 0.095 |
